Measured values taken from patent publication US7229630B2, “Stabilized formulations of alpha adrenergic receptor antagonists and the uses thereof” (Novalar Pharmaceuticals, Inc., priority 2002, dated 2007).
Structures can show the parent of a compound that is named as a salt.

Key:
[1] = Narrow-range pH-stability profiling at 60° C. (HPLC); type: physicochemical; conditions: 50 mM sodium phosphate, zero-order rate constant vs pH
Procedure: (§1) The drug is monitored at a detection wavelength of 232 nm.
All samples were stored in the dark. […] All samples were analyzed without dilution.
The phosphate buffers were prepared as previously described. […] Measurement of sample pH was done after HPLC analysis.
In order to precisely define the most favorable pH, a stronger stressing condition was needed to generate a greater extent of degradation in the lower pH region. For this study, the incubation condition was shifted from 40° C. to 60° C. […] Since the extent of degradation after fourteen (14) days was still less than twenty percent (20%) in most samples, zero-order rate kinetics was used for the degradation curves (concentration versus time). The calculated rate constant was plotted against pH to provide the narrow-range pH-stability profile.

[2] = Effect of buffer anion on stability at 60° C. (HPLC); type: physicochemical
Procedure: as §1
Tightly sealed glass vials containing the test solutions were placed in an oven at 40° C. or 60° C. All samples were stored in the dark. Aliquots were removed at designated time points for HPLC analysis and pH measurement. All samples were analyzed without dilution.
The test buffers included 50 mM sodium phosphate, 50 mM sodium acetate, 50 mM sodium lactate, 50 mM sodium citrate, and 50 mM sodium succinate buffers at pH 3.
The phosphate and acetate buffers were prepared as described above. The citrate buffer was prepared by adding 9.60 g of citric acid to water, adjusting the pH with 2 N NaOH to pH 3, and bringing the volume to 1 L in a volumetric flask. The lactate buffer was prepared by adding 2.25 g of lactic acid to water, adjusting the pH with 2 N NaOH to pH 3, and bringing the volume to 1 L in a volumetric flask. The succinate buffer was prepared by adding 2.95 g succinic acid to water, adjusting the pH with 2 N NaOH to pH 3, and bringing the volume to 1 L in a volumetric flask.
Measurements of sample pH were done after HPLC analysis.

healthy adult volunteers = test: Reversal of soft-tissue anesthesia after inferior alveolar nerve block, proof-of-principle trial; type: in vivo, human; conditions: 0.2 mg in 1.8 ml
Procedure: The objective of this proof-of-principle trial was to evaluate the feasibility of reversing soft-tissue anesthesia by pharmacologically blocking the effects of epinephrine. […] Subjects self-evaluated the return of normal sensation in their lip, chin, tongue, nose, and teeth by palpations at 5-minute intervals starting at 5 minutes before the study drug injection and continuing for approximately 4–5 hours. To avoid biased responding, subjects were told that they could not leave the clinic for 8 hours after the last injection. Responses for soft tissues were categorized as (1) numb (no feeling), (2) feeling of pins and needles, or (3) normal sensation. Responses for teeth were (1) numb (no feeling) or (2) normal sensation. Safety was evaluated through reports of adverse events, measurement of vital signs and two-lead electrocardiograms before, during, and after the injections of anesthetic and study drug, and through pain assessments using visual analog scales.

[3] = system: healthy adult volunteer subjects; test: Dose range study of reversal of local anesthesia after mandibular nerve block; type: in vivo, human
Description: The objectives of this study were to evaluate the safety and efficacy of a range of doses of phentolamine in reversing local anesthesia after a mandibular nerve block. […] Subjects palpated their lower lip, chin, tongue, and teeth every five minutes for the next five hours after injections.

[4] = system: healthy adult volunteer subjects; test: Dose range study of reversal of local anesthesia after maxillary infiltration; type: in vivo, human
Procedure: Four groups of eight healthy adult volunteer subjects were given an infiltration of the lateral incisor using one 1.8 ml cartridge of lidocaine 2% with epinephrine 1:100,000. […] Subjects palpated their upper lip, nose, and teeth every five minutes for the next five hours after injections.

[5] = 50 mM sodium Acetate pH 3.0, 60° C., Day 0
[6] = 50 mM sodium Acetate pH 3.0, 60° C., Day 2
[7] = 50 mM sodium Acetate pH 3.0, 60° C., Day 7
[8] = 50 mM sodium Acetate pH 3.0, 60° C., Day 14
[9] = 50 mM sodium Citrate pH 3.0, 60° C., Day 0
[10] = 50 mM sodium Citrate pH 3.0, 60° C., Day 2
[11] = 50 mM sodium Citrate pH 3.0, 60° C., Day 7
[12] = 50 mM sodium Citrate pH 3.0, 60° C., Day 14
[13] = 50 mM sodium Lactate pH 3.0, 60° C., Day 0
[14] = 50 mM sodium Lactate pH 3.0, 60° C., Day 2
[15] = 50 mM sodium Lactate pH 3.0, 60° C., Day 7
[16] = 50 mM sodium Lactate pH 3.0, 60° C., Day 14
[17] = 50 mM sodium Phosphate pH 3.0, 60° C., Day 0
[18] = 50 mM sodium Phosphate pH 3.0, 60° C., Day 2
[19] = 50 mM sodium Phosphate pH 3.0, 60° C., Day 7
[20] = 50 mM sodium Phosphate pH 3.0, 60° C., Day 14
[21] = 50 mM sodium Succinate pH 3.0, 60° C., Day 0
[22] = 50 mM sodium Succinate pH 3.0, 60° C., Day 2
[23] = 50 mM sodium Succinate pH 3.0, 60° C., Day 7
[24] = 50 mM sodium Succinate pH 3.0, 60° C., Day 14

pH at which most stable [1]: 3.5
Phentolamine Concentration [2, 5]: 96 µg/mL
Phentolamine Purity [2, 5]: 100 % peak area
Phentolamine Concentration [2, 6]: 95 µg/mL
Phentolamine Purity [2, 6]: 98 % peak area
Phentolamine Concentration [2, 7]: 94 µg/mL
Phentolamine Purity [2, 7]: 97 % peak area
Phentolamine Concentration [2, 8]: 89 µg/mL
Phentolamine Purity [2, 8]: 96 % peak area
Phentolamine Concentration [2, 9]: 93 µg/mL
Phentolamine Purity [2, 9]: 97 % peak area
Phentolamine Concentration [2, 10]: 87 µg/mL
Phentolamine Purity [2, 10]: 91 % peak area
Phentolamine Concentration [2, 11]: 73 µg/mL
Phentolamine Purity [2, 11]: 77 % peak area
Phentolamine Concentration [2, 12]: 62 µg/mL
Phentolamine Purity [2, 12]: 69 % peak area
Phentolamine Concentration [2, 13]: 97 µg/mL
Phentolamine Purity [2, 13]: 99 % peak area
Phentolamine Concentration [2, 14]: 94 µg/mL
Phentolamine Purity [2, 14]: 98 % peak area
Phentolamine Concentration [2, 15]: 91 µg/mL
Phentolamine Purity [2, 15]: 94 % peak area
Phentolamine Concentration [2, 16]: 83 µg/mL
Phentolamine Purity [2, 16]: 89 % peak area
Phentolamine Concentration [2, 17]: 96 µg/mL
Phentolamine Purity [2, 17]: 99 % peak area
Phentolamine Concentration [2, 18]: 93 µg/mL
Phentolamine Purity [2, 18]: 97 % peak area
Phentolamine Concentration [2, 19]: 91 µg/mL
Phentolamine Purity [2, 19]: 95 % peak area
Phentolamine Concentration [2, 20]: 84 µg/mL
Phentolamine Purity [2, 20]: 91 % peak area
Phentolamine Concentration [2, 21]: 96 µg/mL
Phentolamine Purity [2, 21]: 99 % peak area
Phentolamine Concentration [2, 22]: 88 µg/mL
Phentolamine Purity [2, 22]: 92 % peak area
Phentolamine Concentration [2, 23]: 74 µg/mL
Phentolamine Purity [2, 23]: 78 % peak area
Phentolamine Concentration [2, 24]: 64 µg/mL
Phentolamine Purity [2, 24]: 74 % peak area
electrocardiogram (healthy adult volunteers): no abnormalities
electrocardiogram ([3]; 0.02 mg, 0.06 mg, 0.4 mg in 1.8 ml): no abnormalities
electrocardiogram ([4]; 0.02 mg, 0.08 mg, 0.4 mg in 1.8 ml): no abnormalities
Compound: Cc1ccc(N(CC2=NCCN2)c2cccc(O)c2)cc1 [Phentolamine Mesylate, phentolamine mesylate]
rank of buffer preference based on the amount of phentolamine recovered at the end of the study ([2]; pH 3, 60° C., 14 days): sodium acetate>no buffer (water with pH adjusted to pH 3)>sodium phosphate>sodium lactate>sodium succinate>sodium citrate
duration of anesthesia (healthy adult volunteers; 60 minutes after 2% lidocaine with 1:100,000 epinephrine, vs saline, each tissue): significantly (p<0.01) reduced
Adverse effects (healthy adult volunteers; vs placebo): few and no differences were noted between the active and placebo groups
Adverse events ([3]; 0.02 mg, 0.06 mg, 0.4 mg in 1.8 ml, vs placebo): few and no differences were noted between the active and placebo groups
duration of anesthesia ([3]; all doses tested (0.02 mg, 0.06 mg, 0.4 mg in 1.8 ml), 60 minutes after lidocaine 2% with epinephrine 1:100,000, vs saline, each measured tissue): significantly (p<0.05) reduced
Adverse events ([4]; 0.02 mg, 0.08 mg, 0.4 mg in 1.8 ml, vs placebo): few and no differences were noted between the active and placebo groups
duration of anesthesia ([4]; all doses tested (0.02 mg, 0.08 mg, 0.4 mg in 1.8 ml), 40 minutes after lidocaine 2% with epinephrine 1:100,000, vs saline, each measured tissue): significantly (p<0.01) reduced
